Source: US10501481B2, “Heterocyclic compounds and their use in preventing or treating bacterial infections” (priority 2015, dated 2019)

Tests used:
[1] = target: T1, TEM-1 (Escherichia coli, UniProt P62593); assay: β-lactamase inhibitory activity, nitrocefin hydrolysis; type: biochemical; conditions: class (A); 30 min pre-incubation; nitrocefin 200 μM
T1 construct: made in house; host or cells: E. coli
Procedure: (§1) Enzyme activity was monitored by spectrophotometric measurement of nitrocefin (NCF-TOKU-E, N005) hydrolysis at 485 nm, at room temperature and in assay buffer A: 100 mM Phosphate pH7, 2% glycerol and 0.1 mg/mL Bovine serum albumin (Sigma, B4287). […] To a transparent polystyrene plate (Corning, 3628) were added in each well 5 μL DMSO or inhibitor dilutions in DMSO and 80 μL enzyme in buffer A. Plates were immediately read at 485 nm in a microplate spectrophotometer (BioTek, PowerWave HT) to enable background subtraction. After 30 min of pre-incubation at room temperature, 15 μL of NCF (200 μM final) were finally added in each well. Final enzyme concentrations were 0.1 nM (TEM-1), 0.075 nM (SHV-1), 0.4 nM (CTX-M-15), 1 nM (KPC-2), 0.2 nM (P99 AmpC), 0.2 nM (CMY-37), 0.4 nM (AmpC P. aeruginosa), 0.2 nM (OXA-1), 1.2 nM (OXA-11), 0.4 nM (OXA-15) and 0.3 nM (OXA-48). After 20 min incubation at room temperature, plates were once again read at 485 nm. Enzyme activity was obtained by subtracting the final signal by the background, and was converted to enzyme inhibition using non inhibited wells. IC50 curves were fitted to a classical Langmuir equilibrium model with Hill slope using XLFIT (IDBS).

[2] = target: T2, SHV-1 (Klebsiella pneumoniae, UniProt P0AD64); assay: as above; type: biochemical
T2 construct: made in house; host or cells: E. coli
T2 sequence (P0AD64 22-286): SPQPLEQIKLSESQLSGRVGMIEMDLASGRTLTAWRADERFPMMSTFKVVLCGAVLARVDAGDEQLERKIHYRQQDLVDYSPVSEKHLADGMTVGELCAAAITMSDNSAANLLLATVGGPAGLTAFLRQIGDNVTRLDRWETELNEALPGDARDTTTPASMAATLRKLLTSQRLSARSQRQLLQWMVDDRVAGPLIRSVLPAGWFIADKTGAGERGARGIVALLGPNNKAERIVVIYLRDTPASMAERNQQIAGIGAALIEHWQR
Procedure: as §1

[3] = target: AmpC P. aeruginosa (Pseudomonas aeruginosa, UniProt P24735); assay: biochemical
AmpC P. aeruginosa, sequence (P24735 27-397): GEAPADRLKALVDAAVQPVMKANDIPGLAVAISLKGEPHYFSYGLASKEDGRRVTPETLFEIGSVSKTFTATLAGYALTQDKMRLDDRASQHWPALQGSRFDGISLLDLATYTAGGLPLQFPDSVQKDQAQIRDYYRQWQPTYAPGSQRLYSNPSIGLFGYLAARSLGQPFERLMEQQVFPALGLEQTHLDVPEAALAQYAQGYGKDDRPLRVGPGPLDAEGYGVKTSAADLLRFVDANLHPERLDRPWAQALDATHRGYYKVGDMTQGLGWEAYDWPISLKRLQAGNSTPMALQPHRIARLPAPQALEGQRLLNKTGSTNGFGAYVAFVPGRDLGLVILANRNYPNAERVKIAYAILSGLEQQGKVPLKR
Procedure: Enzyme activity was monitored by spectrophotometric measurement of nitrocefin (NCF-TOKU-E, N005) hydrolysis at 485 nm, at room temperature and in assay buffer A: 100 mM Phosphate pH7, 2% glycerol and 0.1 mg/mL Bovine serum albumin (Sigma, B4287). Enzymes were cloned in E. coli expression vector, expressed and purified in house using classical procedures. To a transparent polystyrene plate (Corning, 3628) were added in each well 5 μL DMSO or inhibitor dilutions in DMSO and 80 μL enzyme in buffer A. Plates were immediately read at 485 nm in a microplate spectrophotometer (BioTek, PowerWave HT) to enable background subtraction. After 30 min of pre-incubation at room temperature, 15 μL of NCF (200 μM final) were finally added in each well. Final enzyme concentrations were 0.1 nM (TEM-1), 0.075 nM (SHV-1), 0.4 nM (CTX-M-15), 1 nM (KPC-2), 0.2 nM (P99 AmpC), 0.2 nM (CMY-37), 0.4 nM (AmpC P. aeruginosa), 0.2 nM (OXA-1), 1.2 nM (OXA-11), 0.4 nM (OXA-15) and 0.3 nM (OXA-48). After 20 min incubation at room temperature, plates were once again read at 485 nm. Enzyme activity was obtained by subtracting the final signal by the background, and was converted to enzyme inhibition using non inhibited wells. IC50 curves were fitted to a classical Langmuir equilibrium model with Hill slope using XLFIT (IDBS).

[4] = target: T3, OXA-11 (Pseudomonas aeruginosa, UniProt Q06778); assay: β-lactamase inhibitory activity, nitrocefin hydrolysis; type: biochemical
T3 construct: made in house; host or cells: E. coli
T3 sequence (Q06778 21-266): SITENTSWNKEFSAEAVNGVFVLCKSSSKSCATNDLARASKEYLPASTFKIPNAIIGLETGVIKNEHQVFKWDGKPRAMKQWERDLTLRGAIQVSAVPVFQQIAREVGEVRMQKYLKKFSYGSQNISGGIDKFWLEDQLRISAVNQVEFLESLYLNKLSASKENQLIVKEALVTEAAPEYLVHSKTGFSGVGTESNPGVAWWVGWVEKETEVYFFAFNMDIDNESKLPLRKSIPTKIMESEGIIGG
Procedure: as §1

[5] = target: T4, OXA-15 (Pseudomonas aeruginosa, UniProt Q51574); assay: as above; type: biochemical
T4 construct: made in house; host or cells: E. coli
T4 sequence (Q51574 22-275): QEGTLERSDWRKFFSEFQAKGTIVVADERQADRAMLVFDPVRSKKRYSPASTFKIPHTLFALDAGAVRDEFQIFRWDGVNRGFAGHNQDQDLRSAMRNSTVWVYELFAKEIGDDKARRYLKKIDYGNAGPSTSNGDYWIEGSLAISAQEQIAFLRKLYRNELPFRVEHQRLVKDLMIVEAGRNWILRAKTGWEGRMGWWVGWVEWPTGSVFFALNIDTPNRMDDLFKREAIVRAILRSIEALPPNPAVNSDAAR
Procedure: as §1

[6] = target: T5, OXA-48 (Klebsiella pneumoniae, UniProt Q6XEC0); assay: as above; type: biochemical
T5 construct: made in house; host or cells: E. coli
T5 sequence (Q6XEC0 23-265 limits assumed): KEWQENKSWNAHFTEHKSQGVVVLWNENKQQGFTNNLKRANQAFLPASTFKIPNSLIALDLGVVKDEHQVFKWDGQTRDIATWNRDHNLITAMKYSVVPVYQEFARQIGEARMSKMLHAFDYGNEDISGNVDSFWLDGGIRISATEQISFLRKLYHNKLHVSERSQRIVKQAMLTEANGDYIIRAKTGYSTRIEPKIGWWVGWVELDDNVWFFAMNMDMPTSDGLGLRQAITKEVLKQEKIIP
Procedure: as §1

[7] = test system: K. pneumoniae BAA-1898 (TEM-1, SHV-11, SHV-12, KPC-2); assay: microbe, parasite or virus in culture; type: cell-based; conditions: for MIC: Klebsiella pneumoniae, BAA1898, read-out: MIC compounds of the invention alone
[8] = test system: P. aeruginosa CIP105250 (OXA-15); assay: MIC broth microdilution, compounds alone; conditions: Pseudomonas aeruginosa, CIP105250, read-out: MIC compounds of the invention alone
[9] = test system: E. coli UFR61O (TEM-1, KPC-2); assay: MIC broth microdilution, alone and synergy with ceftazidime; conditions: for MIC of CAZ in combination with compound at 4 μg/mL: strain UFR61O, compound fixed at 4 μg/mL
[10] = test system: K. pneumoniae 160143 (TEM-1, SHV-1, CTX-M-15, KPC-2, OXA-1); assay: as above; conditions: for MIC of CAZ in combination with compound at 4 μg/mL: strain 160143, compound fixed at 4 μg/mL
[11] = test system: K. pneumoniae UFR68 (TEM-1, SHV-11, CTX-M-15, KPC-3); assay: as above; conditions: for MIC: Klebsiella pneumoniae, read-out: MIC compounds of the invention alone; for MIC of CAZ in combination with compound at 4 μg/mL: strain UFR68, compound fixed at 4 μg/mL
[12] = test system: E. cloacae UFR85 (TEM-1, CTX-M-15, derepressed AmpC); assay: as above; conditions: strain UFR85; compound fixed at 4 μg/mL
[13] = test system: E. cloacae UFR70 (TEM-1, CTX-M-15, CMY-2, OXA-1, Porin loss); assay: as above; conditions: for MIC of CAZ in combination with compound at 4 μg/mL: strain UFR70, compound fixed at 4 μg/mL
[14] = test system: K. pneumoniae UFR77 (CMY-2); assay: as above; conditions: for MIC: Klebsiella pneumoniae, read-out: MIC compounds of the invention alone; for MIC of CAZ in combination with compound at 4 μg/mL: strain UFR77, compound fixed at 4 μg/mL
[15] = test system: E. coli UFR74 (SHV-1, DHA-1); assay: as above; conditions: for MIC of CAZ in combination with compound at 4 μg/mL: strain UFR74, compound fixed at 4 μg/mL
[16] = test system: E. coli UFR18 (CTX-M-15, OXA-204); assay: as above; conditions: for MIC: Escherichia coli, read-out: MIC compounds of the invention alone; for MIC of CAZ in combination with compound at 4 μg/mL: strain UFR18, compound fixed at 4 μg/mL
[17] = test system: E. coli 131119 (TEM-1, OXA-48); assay: as above; conditions: for MIC: Escherichia coli, read-out: MIC compounds of the invention alone; for MIC of CAZ in combination with compound at 4 μg/mL: strain 131119, compound fixed at 4 μg/mL
[18] = test system: K. pneumoniae 200047 (TEM-1, SHV-32, CTX-M-15, OXA-1); assay: as above; conditions: for MIC of CAZ in combination with compound at 4 μg/mL: strain 200047, compound fixed at 4 μg/mL
[19] = test system: E. coli UFR32 (TEM-1, VEB-1, OXA-10); assay: as above; conditions: strain UFR32; compound fixed at 4 μg/mL
[20] = test system: E. cloacae UFR38 (CTX-M-15, NDM-1); assay: as above; conditions: for MIC: Enterobacter cloacae, read-out: MIC compounds of the invention alone; for MIC of CAZ in combination with compound at 4 μg/mL: strain UFR38, compound fixed at 4 μg/mL
[21] = test system: C. murliniae 210102 (VIM-4); assay: as above; conditions: for MIC: read-out: MIC compounds of the invention alone
[22] = test system: E. coli UFR52 (TEM-1, SHV-12, IMP-8); assay: as above; conditions: for MIC: Escherichia coli, read-out: MIC compounds of the invention alone
[23] = test system: P. aeruginosa CIP107051 (TEM-24); assay: as above; conditions: for MIC: Pseudomonas aeruginosa, CIP107051, read-out: MIC compounds of the invention alone; for MIC of CAZ in combination with compound at 4 μg/mL: strain CIP107051, compound fixed at 4 μg/mL
[24] = Klebsiella pneumoniae, read-out: MIC compounds of the invention alone
[25] = Escherichia coli, read-out: MIC compounds of the invention alone

T1 sequence (P62593 24-286 limits assumed): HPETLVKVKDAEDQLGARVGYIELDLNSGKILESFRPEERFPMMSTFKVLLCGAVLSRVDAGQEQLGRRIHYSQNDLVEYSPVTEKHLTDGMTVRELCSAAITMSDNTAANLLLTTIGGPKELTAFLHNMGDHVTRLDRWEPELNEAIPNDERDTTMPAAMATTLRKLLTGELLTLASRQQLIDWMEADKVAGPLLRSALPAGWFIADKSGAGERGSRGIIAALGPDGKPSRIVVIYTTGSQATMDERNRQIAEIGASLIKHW

SMILES | IC50 [1] [nM] | IC50 [2] [nM] | IC50 [3] [nM] | IC50 [4] [nM] | IC50 [5] [nM] | IC50 [6] [nM] | MIC [7] [µg/mL] | MIC [8] [µg/mL] | MIC of CAZ in combination with compound at 4 μg/mL [9] [µg/mL] | MIC of CAZ in combination with compound at 4 μg/mL [10] [µg/mL] | MIC [11] [µg/mL] | MIC of CAZ in combination with compound at 4 μg/mL [11] [µg/mL] | MIC of CAZ in combination with compound at 4 μg/mL [12] [µg/mL] | MIC of CAZ in combination with compound at 4 μg/mL [13] [µg/mL] | MIC [14] [µg/mL] | MIC of CAZ in combination with compound at 4 μg/mL [14] [µg/mL] | MIC of CAZ in combination with compound at 4 μg/mL [15] [µg/mL] | MIC [16] [µg/mL] | MIC of CAZ in combination with compound at 4 μg/mL [16] [µg/mL] | MIC [17] [µg/mL] | further results
Cn1c2c(sc1=O)C1CN(C2)C(=O)N1OS(=O)(=O)[O-].[Na+] (stereo not drawn) [Example 1, Sodium (5-methyl-4,9-dioxo-3-thia-5,8,10-triaza-tricyclo[6.2.1.0^2.6]undec-2(6)-en-10-yl) sulfate] | 3.3 | 12 | 190 | 40 | 250 | 0.89 | 16 | > 32 | <0.25 | 0.5 | 32 | 64 | <0.25 | <0.25 | 8 | ≤0.25 | <0.25 | 4 | <0.25 | 1 | MIC of CAZ in combination with compound at 4 μg/mL ([7]; strain BAA-1898, compound fixed at 4 μg/mL): 64 µg/mL; MIC ([13]; Enterobacter cloacae, read-out: MIC compounds of the invention alone): 4 µg/mL; MIC of CAZ in combination with compound at 4 μg/mL [17]: <0.25 µg/mL; MIC [18, 24]: 4 µg/mL; MIC of CAZ in combination with compound at 4 μg/mL [18]: <0.25 µg/mL; MIC of CAZ in combination with compound at 4 μg/mL [19]: <0.25 µg/mL; MIC [20]: 8 µg/mL; MIC of CAZ in combination with compound at 4 μg/mL [20]: >128 µg/mL; MIC [21]: 32 µg/mL; MIC of CAZ in combination with compound at 4 μg/mL ([21]; strain 210102, compound fixed at 4 μg/mL): >128 µg/mL; MIC [22]: 8 µg/mL; MIC of CAZ in combination with compound at 4 μg/mL ([22]; strain UFR52, compound fixed at 4 μg/mL): 0.5 µg/mL; MIC [23]: > 128 µg/mL; MIC of CAZ in combination with compound at 4 μg/mL [23]: 4 µg/mL
COC(=O)Cn1c2c(sc1=O)C1CN(C2)C(=O)N1OS(=O)(=O)[O-].[Na+] (stereo not drawn) [Example 2, Sodium [5-(2-methoxy-2-oxo-ethyl)-4,9-dioxo-3-thia-5,8,10-triaza-tricyclo[6.2.1.0^2.6]undec-2(6)-en-10-yl] sulfate] | 0.64 | 1.3 | 220 | 4.1 | 57 | 0.67 | 32 | > 32 | <0.25 | 8 | 32 | 32 | 16 | 1 | 4 | 0.25 | 1 | 4 | 0.5 | 2 | MIC [9, 25]: 8 µg/mL; MIC [10, 24]: 16 µg/mL; MIC [15, 25]: 8 µg/mL; MIC of CAZ in combination with compound at 4 μg/mL [17]: <0.25 µg/mL; MIC of CAZ in combination with compound at 4 μg/mL [18]: <0.25 µg/mL; MIC of CAZ in combination with compound at 4 μg/mL [19]: <0.25 µg/mL; MIC [20]: 8 µg/mL; MIC of CAZ in combination with compound at 4 μg/mL [20]: >128 µg/mL; MIC [21]: 16 µg/mL; MIC [22]: 8 µg/mL; MIC [23]: > 32 µg/mL; MIC of CAZ in combination with compound at 4 μg/mL [23]: 16 µg/mL
